The assay has as its target WT HIV-1 protease (Human immunodeficiency virus type 1 group M subtype B (isolate HXB2) (HIV-1), UniProt P04585). Kind of assay: Assay for inhibition of microbial expressed HIV protease (Procedure A, peptide substrate, HPLC fluorescence detection). Type of assay: biochemical. The following applies: WT HIV-1 protease 10 pM, substrate 400 micromolar, pH 5.5, 30 min preincubation, 1 hour at 30° C.; read-out: Enzyme inhibition IC50. The method, boiled down:
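E. coli-expressed enzyme preincubated 30 min at room temperature with compound in 50 mM sodium acetate pH 5.5, 100 mM NaCl, 0.1% BSA. Reaction ran 1 h at 30° C with 400 micromolar Val-Ser-Gln-Asn-(betanaphthyl)Ala-Pro-Ile-Val substrate and 10 picomolar protease. After phosphoric acid quench, product was measured by C18 HPLC with fluorescence (ex 270/em 330 nm).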
`COC(=O)N[C@H](C(=O)NCc1ccc(C(CO)N(Cc2cc3ccccc3[nH]2)S(=O)(=O)c2ccc3scnc3c2)s1)C(c1ccccc1)c1ccccc1` (stereo partly shown) [Example 24]: the IC50 turned out to be 13.6 nM. For the compound `COC(=O)N[C@H](C(=O)NCc1ccc([C@H](CO)N(CC(C)C)S(=O)(=O)c2ccc3scnc3c2)s1)C(c1ccccc1)c1ccccc1` [Example 23], the IC50 stood at 60.9 nM. For `CCN([C@H](CO)c1ccc([C@@H](NC(=O)[C@@H](NC(=O)OC)C(c2ccccc2)c2ccccc2)C(F)(F)F)s1)S(=O)(=O)c1ccc(N)cc1` [Example 62] the value was 18.5 nM; for `CC(C)CN(C(CO)c1ccc(CNC(=O)C(NC(=O)c2ccccc2)C(c2ccccc2)c2ccccc2)s1)S(=O)(=O)c1ccc2ncsc2c1` (stereo not shown) [Example 128, N-[1-benzhydryl-2-[[5-[1-(1,3-benzothiazol-6-ylsulfonyl(isobutyl)amino)-2-hydroxy-ethyl]-2-thienyl]methylamino]-2-oxo-ethyl]benzamide], 53 nM; for `COC(=O)N[C@H](C(=O)NCc1ncc(C(CO)N(CCC(C)C)S(=O)(=O)c2ccccc2)s1)C(c1ccccc1)c1ccccc1` (stereo partly drawn) [Example 3, N-[(5-{2-hydroxy-1-[(3-methylbutyl)(phenylsulfonyl)amino]ethyl}-1,3-thiazol-2-yl)methyl]-Nα-(methoxycarbonyl)-β-phenyl-L-phenylalaninamide], 12.1 nM. Take `COC(=O)N[C@H](C(=O)NCc1ccc([C@@H](CO)N(Cc2cn[nH]c2)S(=O)(=O)c2ccc3scnc3c2)s1)C(c1ccccc1)c1ccccc1` [Example 32]: the IC50 is 2.27 nM. Regarding `COC(=O)N[C@H](C(=O)N[C@H](c1ccc([C@@H](CO)N(CCC(C)(C)C)S(=O)(=O)c2cccc3[nH]ccc23)s1)C(F)(F)F)C(c1ccccc1)c1ccccc1` [Example 59, N-[(1S)-1-(5-{(1R)-1-[(3,3-dimethylbutyl)(1H-indol-4-ylsulfonyl)amino]-2-hydroxyethyl}thiophen-2-yl)-2,2,2-trifluoroethyl]-Nα-(methoxycarbonyl)-β-phenyl-L-phenylalaninamide], the IC50 is 4.22 nM. Turning to `COC(=O)N[C@H](C(=O)N[C@@H](C)c1ccc([C@@H](CO)N(C(C)C)S(=O)(=O)c2ccc(N)cc2)s1)C(c1ccccc1)c1ccccc1` [Example 75, N-[(1S)-1-{5-[(1R)-1-{[(4-aminophenyl)sulfonyl](propan-2-yl)amino}-2-hydroxyethyl]thiophen-2-yl}ethyl]-Nα-(methoxycarbonyl)-β-phenyl-L-phenylalaninamide], the IC50 came to 7.89 nM. `COC(=O)N[C@H](C(=O)NCc1ccc(C(CO)N(Cc2cccnc2OC)S(=O)(=O)c2ccc3scnc3c2)s1)C(c1ccccc1)c1ccccc1` (stereo partly shown) [Example 26]: the IC50 was 31 nM. For `COC(=O)N[C@H](C(=O)N[C@H](c1ccc([C@@H](CO)N(CCC(C)(C)C)S(=O)(=O)c2ccc3ncccc3c2)s1)C(F)(F)F)C(c1ccccc1)c1ccccc1` [Example 73, Methyl [(2S)-1-{[(1S)-1-(5-{(1R)-1-[(3,3-dimethylbutyl)(quinolin-6-ylsulfonyl)amino]-2-hydroxyethyl}thiophen-2-yl)-2,2,2-trifluoroethyl]amino}-1-oxo-3,3-diphenylpropan-2-yl]carbamate] the value was 2.03 nM; for `COC(=O)N[C@H](C(=O)NCc1ccc([C@@H](CO)N(CC2CC(F)(F)C2)S(=O)(=O)c2ccc3cc[nH]c3c2)s1)C(c1ccccc1)c1ccccc1` [Example 41], 8.83 nM; for `COC(=O)N[C@H](C(=O)N[C@H](c1ccc([C@@H](CO)N(CCC(C)(C)C)S(=O)(=O)c2ccc3ncsc3c2)s1)C(F)(F)F)C(c1ccccc1)c1ccccc1` [Example 100, N-[(1S)-1-(5-{(1R)-1-[(1,3-benzothiazol-6-ylsulfonyl)(3,3-dimethylbutyl)amino]-2-hydroxyethyl}thiophen-2-yl)-2,2,2-trifluoroethyl]-Nα-(methoxycarbonyl)-β-phenyl-L-phenylalaninamide], 0.9 nM. `COC(=O)N[C@H](C(=O)NCc1ccc([C@@H](CO)N(CC2CC(F)(F)C2)S(=O)(=O)c2cccc(CC(C)(C)O)c2)s1)C(c1ccccc1)c1ccccc1` [Example 15]: the IC50 was determined as 6.6 nM. With `COC(=O)N[C@H](C(=O)NCc1ccc([C@@H](CO)N(C(C)C)S(=O)(=O)c2ccc(N)cc2)s1)C(c1ccccc1)c1ccccc1` [Example 12], the IC50 is 18.8 nM. Consider `COC(=O)N[C@H](C(=O)N[C@H](c1ccc([C@@H](CO)N(CC(C)C)S(=O)(=O)c2ccc(N)cc2)s1)C1CC1)C(c1ccccc1)c1ccccc1` [Example 63, N-[(S)-{[4(1R)-1-{[(4-aminophenyl)sulfonyl](2-methylpropyl)amino}-2-hydroxyethyl]thiophen-2-yl}(cyclopropyl)methyl]-Nα-(methoxycarbonyl)-β-phenyl-L-phenylalaninamide], for which the IC50 is 3.98 nM. To `[2H]C([2H])([2H])C([2H])(N([C@H](CO)c1ccc([C@@H](NC(=O)[C@@H](NC(=O)OC)C(c2ccccc2)c2ccccc2)C(F)(F)F)s1)S(=O)(=O)c1ccc2ncsc2c1)C([2H])([2H])[2H]` [Example 106, N-[(1S)-1-{5-[(1R)-1-{(1,3-benzothiazol-6-ylsulfonyl)[(2-^2H)propan-2-yl]amino}-2-hydroxyethyl]thiophen-2-yl}-2,2,2-trifluoroethyl]-Nα-(methoxycarbonyl)-β-phenyl-L-phenylalaninamide] belongs 34.7 nM.

For orientation: IC50 means the midpoint of a concentration-inhibition curve.

The record behind these values is US9133157B2, “HIV protease inhibitors” (Merck Canada Inc., priority 2011, dated 2015).
